Measured values published in patent US20040166137A1, “Hetero-substituted benzimidazole compounds and antiviral uses thereof” (priority 2002, published 2004).
Where two headings read alike, the source gives them in different places.

Tests used:
[1] = XTT cytotoxicity assay on uninfected Hep2 cells; type: cell-based; conditions: human
Protocol: Uninfected confluent monolayers (seeded at 2.2×10^4 cells/well) of Hep2 cells were grown in microtiter wells (96-well plates) in EMEM (Eagle Minimum Essential Medium w/o L-glutamine [Bio Whittaker Cat. No. 12-125F] with 3% fetal bovine serum (FBS; which had been heat inactivated for 30 minutes at 56° C.; Bio Whittaker Cat. No. 14-501F), antibiotics (penicillin/streptomycin; Bio Whittaker Cat. No. 17-602E) added at 1%, and glutamine added at 1% (complete EMEM). The plates were incubated for 24 hours and used for antiviral assays and cytotoxicity assays.
Cytotoxicity assays were conducted by first removing all medium from the well containing uninfected Hep2 cells, adding 100 μl complete EMEM, and then adding hetero-substituted benzimidazole compounds (eight 3-fold dilutions with 100 μM concentration as the highest final concentration). Complete EMEM (50 μl) was added to each well instead of virus and the plates were incubated in a CO2 incubator at 37° C. for 48 hours.
At 48 hours, the cytotoxicity assays were developed by adding to each well 50 μl of XTT (1 mg/ml in PBS) containing 0.01-0.02 mM of the electron coupling agent phenazine methosulfate (PMS). The plates were incubated for 2-4 hours at 37° C. and then read in a 96-well plate reader at 450 nm. Plotting the % average OD of treated wells compared to the cell control vs. compound concentration generated dose response curves. CC50 (50% inhibitory cytotoxic concentration) values for each compound were then calculated from these curves. […]

RSV = experiment: Antiviral assay (PRA): inhibition of RSV syncytial plaque formation on Hep2 cell monolayers; type: cell-based; conditions: human respiratory syncytial virus, read-out: PRA (IC50)
Protocol: The lower the observed level of fusion, the greater the antiviral activity of the compound was determined to be. Uninfected confluent monolayers (seeded at 2.2×10^4 cells/well) of Hep2 cells were grown in microtiter wells (96-well plates) in EMEM (Eagle Minimum Essential Medium w/o L-glutamine [Bio Whittaker Cat. […] Bio Whittaker Cat. No. 14-[…]), antibiotics (penicillin/streptomycin; Bio Whittaker Cat. […] The plates were incubated for 24 hours and used for antiviral assays and cytotoxicity assays. To prepare Hep2 cells for addition to uninfected cells, cultures of […] infected Hep2 cells were washed with DPBS (Dulbecco's Phosphate Buffered Saline w/o calcium or magnesium; Bio Whittaker Cat. […] Gibco Life Technologies Cat. No. 15040-017). The cells were spun for 10 minutes and resuspended in 3% FBS. Cell counts were performed using a hemacytometer. Persistent cells were added to the uninfected Hep2 cells. The antiviral assay was conducted by first removing all medium from the wells containing uninfected Hep2 cells, adding 100 μl complete EMEM, then adding hetero-substituted benzimidazole compounds (eight 3-fold dilutions with 20 μM concentration as the highest final concentration) in 50 μl complete EMEM. Approximately 50 […] plaque forming units (PFU) of RSV in 50 μl was added per well and the plates were incubated in a CO2 incubator at 37° C. for 48 hours. Each plate contained uninfected control wells and infected untreated control wells for calculation of % inhibition (EC50) for each concentration. After incubation, cells in control wells were checked for fusion centers, medium was removed from the wells followed by addition to each well of either Crystal Violet stain or XTT. With respect to Crystal Violet, approximately 50μl 0.25% Crystal Violet stain in methanol was added to each well. The wells were rinsed immediately, to remove excess stain, and were allowed to dry. The number of syncytia per well were then counted, using a dissecting microscope. For antiviral assays at 48 hours post infection, cells in control wells were checked for syncytial plaques. Medium was removed from the wells followed by addition of approximately 50 Al Crystal Violet stain (0.25% Crystal Violet, 0.25% Giemsa dissolved in 10% formaldehyde, 70% methanol, and 20% H2O). The wells were incubated at room temperature for 5 minutes, rinsed with H2O to remove excess stain, and allowed to dry. The number of syncytia per well were counted using a dissecting microscope. The 50% inhibitory concentration (EC50) for each compound was calculated from the dose response curve. The compounds listed in Tables 1-2 have been screened for inhibitory activity against RSV.

[2] = HEp-2, Table 1, RSV-infected Hep2 cells, 48 hours, syncytia counted
[3] = HEp-2, Table 2, RSV-infected Hep2 cells, 48 hours, syncytia counted

SMILES	CC50 at 48 h ([1]; Table 1, uninfected Hep2 cells, 48 hours, read-out: XTT (CC50))	IC50 (RSV; HEp-2, 48 h)	CC50 at 48 h [1]	IC50 (RSV; [2])	IC50 (RSV; [3])
OCCN(CCO)CCNCc1nc2cccnc2n1Cc1nc2ccccc2[nH]1 [compound 1, 2-[(2-{[3-(1H-Benzoimidazol-2-ylmethyl)-3H-imidazo[4,5-b]pyridin-2-ylmethyl]-amino}-ethyl)-(2-hydroxy-ethyl)-amino]-ethanol]	≥ 100000 nM	160 nM			
c1ccc2[nH]c(Cn3c(CNCCN4CCOCC4)nc4cccnc43)nc2c1 [compound 2, [3-(1H-Benzoimidazol-2-ylmethyl)-3H-imidazo[4,5-b]pyridin-2-ylmethyl]-(2-morpholin-4-yl-ethyl)-amine]			≥ 100000 nM	240 nM	
COCCN(C)Cc1nc2cccnc2n1Cc1nc2ccccc2[nH]1 [compound 3, [3-(1H-Benzoimidazol-2-ylmethyl)-3H-imidazo[4,5-b]pyridin-2-ylmethyl]-(2-methoxy-ethyl)-methyl-amine]			≥ 100000 nM	150 nM	
c1ccc2[nH]c(Cn3c(CNCCCN4CCOCC4)nc4cccnc43)nc2c1 [compound 4, [3-(1H-Benzoimidazol-2-ylmethyl)-3H-imidazo[4,5-b]pyridin-2-ylmethyl]-(3-morpholin-4-yl-propyl)-amine]			≥ 100000 nM	190 nM	
CN1CCN(CCCNCc2nc3cccnc3n2Cc2nc3ccccc3[nH]2)CC1 [compound 5, [3-(1H-Benzoimidazol-2-ylmethyl)-3H-imidazo[4,5-b]pyridin-2-ylmethyl]-[3-(4-methyl-piperazin-1-yl)-propyl]-amine]			≥ 100000 nM	9 nM	
OCCN(CCO)CCCNCc1nc2cccnc2n1Cc1nc2ccccc2[nH]1 [compound 6, 2-[(3-{[3-(1H-Benzoimidazol-2-ylmethyl)-3H-imidazo[4,5-b]pyridin-2-ylmethyl]-amino}-propyl)-(2-hydroxy-ethyl)-amino]-ethanol]			≥ 100000 nM	190 nM	
c1ccc2[nH]c(Cn3c(CNC4CCCC4)nc4cccnc43)nc2c1 [compound 7, [3-(1H-Benzoimidazol-2-ylmethyl)-3H-imidazo[4,5-b]pyridin-2-ylmethyl]-cyclopentyl-amine]			≥ 100000 nM	4 nM	
CC(C)N(Cc1ccccc1)Cc1nc2cccnc2n1Cc1nc2ccccc2[nH]1 [compound 8, [3-(1H-Benzoimidazol-2-ylmethyl)-3H-imidazo[4,5-b]pyridin-2-ylmethyl]-benzyl-isopropyl-amine]			≥ 100000 nM	5 nM	
CC(C)N(C)Cc1nc2cccnc2n1Cc1nc2ccccc2[nH]1 [compound 9, [3-(1H-Benzoimidazol-2-ylmethyl)-3H-imidazo[4,5-b]pyridin-2-ylmethyl]-isopropyl-methyl-amine]			≥ 100000 nM	3 nM	
CC(C)N(Cc1nc2cccnc2n1Cc1nc2ccccc2[nH]1)C(C)C [compound 12, [3-(1H-Benzoimidazol-2-ylmethyl)-3H-imidazo[4,5-b]pyridin-2-ylmethyl]-diisopropyl-amine]			≥ 100000 nM	5 nM	
c1ccc2[nH]c(Cn3c(CN4CCOCC4)nc4cccnc43)nc2c1 [compound 13, 3-(1H-Benzoimidazol-2-ylmethyl)-2-morpholin-4-ylmethyl-3H-imidazo[4,5-b]pyridine]			≥ 100000 nM		1 nM
FC(F)(F)c1ccc(N2CCN(Cc3nc4cccnc4n3Cc3nc4ccccc4[nH]3)CC2)cc1 [compound 14, 3-(1H-Benzoimidazol-2-ylmethyl)-2-[4-(4-trifluoromethyl-phenyl)-piperazin-1-ylmethyl]-3H-imidazo[4,5-b]pyridine]			≥ 100000 nM		5 nM
Oc1cc2c(cc1O)CN(Cc1nc3cccnc3n1Cc1nc3ccccc3[nH]1)CC2 [compound 15, 2-[3-(1H-Benzoimidazol-2-ylmethyl)-3H-imidazo[4,5-b]pyridin-2-ylmethyl]-1,2,3,4-tetrahydro-isoquinoline-6,7-diol]			≥ 100000 nM		13 nM
c1ccc2[nH]c(Cn3c(CN4CCNCC4)nc4cccnc43)nc2c1 [compound 16, 3-(1H-Benzoimidazol-2-ylmethyl)-2-piperazin-1-ylmethyl-3H-imidazo[4,5-b]pyridine]			≥ 100000 nM		120 nM
O=C(Cc1ccccc1)N1CCN(Cc2nc3cccnc3n2Cc2nc3ccccc3[nH]2)CC1 [compound 17, 1-{4-[3-(1H-Benzoimidazol-2-ylmethyl)-3H-imidazo[4,5-b]pyridin-2-ylmethyl]-piperazin-1-yl}-2-phenyl-ethanone]			≥ 100000 nM		20 nM
CC(=O)N1CCN(Cc2nc3cccnc3n2Cc2nc3ccccc3[nH]2)CC1 [compound 18, 1-{4-[3-(1H-Benzoimidazol-2-ylmethyl)-3H-imidazo[4,5-b]pyridin-2-ylmethyl]-piperazin-1-yl}-ethanone]			≥ 100000 nM		4 nM
Cn1cnc(S(=O)(=O)N2CCN(Cc3nc4cccnc4n3Cc3nc4ccccc4[nH]3)CC2)c1 [compound 19, 3-(1H-Benzoimidazol-2-ylmethyl)-2-[4-(1-methyl-1H-imidazole-4-sulfonyl)-piperazin-1-ylmethyl]-3H-imidazo[4,5-b]pyridine]			≥ 100000 nM		
O=C(Nc1ccc2c(c1)OCCCO2)N1CCN(Cc2nc3cccnc3n2Cc2nc3ccccc3[nH]2)CC1 [compound 20, 4-[3-(1H-Benzoimidazol-2-ylmethyl)-3H-imidazo[4,5-b]pyridin-2-ylmethyl]-piperazine-1-carboxylic acid (3,4-dihydro-2H-benzo[b][1,4]dioxepin-7-yl)-amide]			≥ 100000 nM		5 nM
O=C(c1ccco1)N1CCN(Cc2nc3cccnc3n2Cc2nc3ccccc3[nH]2)CC1 [compound 21, {4-[3-(1H-Benzoimidazol-2-ylmethyl)-3H-imidazo[4,5-b]pyridin-2-ylmethyl]-piperazin-1-yl}-furan-2-yl-methanone]			≥ 100000 nM		13 nM
OCC1CCCN1Cc1nc2cccnc2n1Cc1nc2ccccc2[nH]1 (stereo not drawn) [compound 22, {1-[3-(1H-Benzoimidazol-2-ylmethyl)-3H-imidazo[4,5-b]pyridin-2-ylmethyl]-pyrrolidin-2-yl}-methanol]			≥ 100000 nM		2 nM
OCCC1CCCCN1Cc1nc2cccnc2n1Cc1nc2ccccc2[nH]1 (stereo not drawn) [compound 23, 2-{1-[3-(1H-Benzoimidazol-2-ylmethyl)-3H-imidazo[4,5-b]pyridin-2-ylmethyl]-piperidin-2-yl}-ethanol]			≥ 100000 nM		10 nM
c1ccc2c(c1)CN(Cc1nc3cccnc3n1Cc1nc3ccccc3[nH]1)C2 [compound 27, 3-(1H-Benzoimidazol-2-ylmethyl)-2-(1,3-dihydro-isoindol-2-ylmethyl)-3H-imidazo[4,5-b]pyridine]			≥ 100000 nM		20 nM
Cc1cc(S(=O)(=O)N2CCN(Cc3nc4cccnc4n3Cc3nc4ccccc4[nH]3)CC2)c(C)s1 [compound 28, 3-(1H-Benzoimidazol-2-ylmethyl)-2-[4-(2,5-dimethyl-thiophene-3-sulfonyl)-piperazin-1-ylmethyl]-3H-imidazo[4,5-b]pyridine]			≥ 100000 nM		16 nM
